In ChEMBL document CHEMBL1201862, “PubChem BioAssay data set” (2004):
Activity calls are given as the source filed them.

What was measured:
[1] = biological target: T1, Carboxy-terminal domain RNA polymerase II polypeptide A small phosphatase 1 (Homo sapiens, UniProt Q9GZU7); assay: CTDSP1 inhibitors, concentration-response, biochemical, absorbance readout, ultra-high-throughput screen actives (AID 540297); format: functional
T1 sequence (Q9GZU7 whole entry): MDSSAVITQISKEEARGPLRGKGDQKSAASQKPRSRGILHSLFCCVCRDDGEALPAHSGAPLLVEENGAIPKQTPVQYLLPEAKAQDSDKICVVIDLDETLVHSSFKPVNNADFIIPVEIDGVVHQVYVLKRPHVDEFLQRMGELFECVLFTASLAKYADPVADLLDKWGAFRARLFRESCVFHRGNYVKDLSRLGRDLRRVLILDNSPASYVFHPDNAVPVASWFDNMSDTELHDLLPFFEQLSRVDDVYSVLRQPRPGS

[2] = biological target: Voltage-dependent T-type calcium channel subunit alpha-1H (Homo sapiens, UniProt O95180); format: functional;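 also: channel activity triggered by adding a high calcium stimulation buffer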
[3] = biological target: T2, Calpain-2 catalytic subunit (Sus scrofa, UniProt P43367); assay: m-calpain protease blockers, concentration series – biochemical, fluorogenic peptide substrate, dose response (AID 1420); format: functional
T2 sequence (P43367 whole entry): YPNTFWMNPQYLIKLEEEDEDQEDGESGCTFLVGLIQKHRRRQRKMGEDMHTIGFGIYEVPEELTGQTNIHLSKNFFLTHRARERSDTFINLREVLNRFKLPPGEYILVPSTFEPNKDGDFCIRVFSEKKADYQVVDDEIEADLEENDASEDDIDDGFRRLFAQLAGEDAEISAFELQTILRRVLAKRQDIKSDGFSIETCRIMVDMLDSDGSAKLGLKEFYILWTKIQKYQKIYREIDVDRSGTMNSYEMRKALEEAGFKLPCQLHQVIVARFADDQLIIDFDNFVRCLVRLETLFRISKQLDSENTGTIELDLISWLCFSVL

[4] = P. falciparum Dd2 growth inhibitors, dose response, SYBR Green, cherry-picked samples (AID 1159567); format: functional, cell-based
[5] = toxicity to human hepatoma HepG2 cells – cell-based, cherry-picked samples, cytotoxicity control, dose response (AID 1159577); format: functional
[6] = viability of HCT116 lacking mutant beta-catenin – cell-based, human colon tumor, dose response (AID 1045); format: functional;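 also: HCT116 colon tumor cells with beta catenin knocked out; cells exposed to compound for 60 hours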
[7] = microbe, parasite or virus in culture; format: functional; conditions: Mycobacterium tuberculosis
[8] = Luminescence Cell-Based Dose Retest to Confirm Inhibitors of Cancer Stem Cells. [Related pubchem assays (depositor defined):AID2717, AID2721]; format: functional; conditions: Homo sapiens
[9] = viability of PTEN-deleted HCT116 cells – cell-based, HCT116 PTEN knockout, dose response (AID 1047); format: functional;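 also: HCT116 colon tumor cells with PTEN knocked out; cells exposed to compound for 60 hours before readout; potency for loss of cell viability measured by luminescence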
[10] = biological target: T3, Ubiquitin-conjugating enzyme E2 N (Homo sapiens, UniProt P61088); format: functional;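 also: Dose-response confirmation in a TR-FRET assay detecting UBC13-driven polyubiquitin chain formation, inhibition measured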
T3 sequence (P61088 whole entry): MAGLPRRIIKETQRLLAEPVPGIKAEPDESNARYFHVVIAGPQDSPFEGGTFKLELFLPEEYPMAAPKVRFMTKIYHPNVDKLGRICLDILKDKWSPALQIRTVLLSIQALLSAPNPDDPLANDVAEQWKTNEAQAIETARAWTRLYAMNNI

[11] = biological target: T4, Endoribonuclease toxin MazF (Escherichia coli K-12, UniProt P0AE70); assay: activation of MazEF endoribonuclease cleavage – biochemical, fluorescence, single-stranded RNA substrate, uHTS hits, dose response (AID 588481); format: functional
T4 sequence (P0AE70 whole entry): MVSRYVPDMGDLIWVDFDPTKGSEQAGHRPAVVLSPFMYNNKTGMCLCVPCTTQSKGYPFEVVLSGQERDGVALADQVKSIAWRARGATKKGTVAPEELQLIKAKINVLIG

[12] = biological target: T4, Endoribonuclease toxin MazF; assay: substrate-only fluorescence increase artefacts – biochemical, single-stranded RNase substrate, counter-screen for MazEF activator project, dose response (AID 588502); format: functional
[13] = test system: H9c2; assay: cells; format: functional, cell-based; conditions: Rattus norvegicus, H9c2, Myocardium;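 also: confirmatory concentration-response retest of ultra-high-throughput screening hits for modulation of myocardial damage; cell death induced by hydrogen peroxide oxidative stress; compound pretreatment for 60 min then peroxide exposure for 2 h; potency is for protecting the cells against peroxide damage rather than for killing them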
[14] = blockers of HIV-1 envelope-mediated cell-cell fusion – cherry-pick, dose response (AID 652057); format: functional, cell-based
[15] = HIV-1 AD8 envelope cell-cell fusion blockers – cherry-pick, dose response (AID 652062); format: functional, cell-based;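 also: luciferase signal from cell-cell fusion driven by HIV-1 clade B AD8 Env; potency is for inhibitors of fusion seen as a drop in luminescence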
[16] = biological target: T5, Corticotropin-releasing factor receptor 2/Corticotropin-releasing factor-binding protein (Homo sapiens, UniProt P24387+Q13324); assay: activators of CRF receptor 2 with binding protein – uHTS hits, confirmation (AID 602473); format: functional; conditions: read-out: EC50_Mean
T5 sequence (Q13324 whole entry): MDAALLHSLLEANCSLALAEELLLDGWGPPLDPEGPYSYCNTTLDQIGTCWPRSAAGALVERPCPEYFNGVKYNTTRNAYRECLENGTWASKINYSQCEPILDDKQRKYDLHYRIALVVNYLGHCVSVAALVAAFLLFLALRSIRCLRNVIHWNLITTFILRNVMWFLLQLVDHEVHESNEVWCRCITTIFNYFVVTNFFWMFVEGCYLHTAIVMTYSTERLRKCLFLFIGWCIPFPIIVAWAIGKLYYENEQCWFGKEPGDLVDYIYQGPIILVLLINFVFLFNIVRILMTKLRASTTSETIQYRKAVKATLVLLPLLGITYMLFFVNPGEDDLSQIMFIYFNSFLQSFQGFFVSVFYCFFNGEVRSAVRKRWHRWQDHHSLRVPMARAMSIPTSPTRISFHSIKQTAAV
T5 sequence (P24387 whole entry): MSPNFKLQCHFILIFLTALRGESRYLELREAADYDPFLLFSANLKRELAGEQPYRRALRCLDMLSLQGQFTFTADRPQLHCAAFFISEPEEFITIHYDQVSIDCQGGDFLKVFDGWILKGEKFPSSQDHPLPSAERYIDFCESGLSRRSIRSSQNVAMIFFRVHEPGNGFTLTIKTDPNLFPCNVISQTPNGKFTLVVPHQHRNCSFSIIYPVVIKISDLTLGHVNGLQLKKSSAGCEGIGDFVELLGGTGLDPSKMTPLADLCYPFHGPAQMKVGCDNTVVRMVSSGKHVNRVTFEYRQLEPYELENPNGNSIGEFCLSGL

[17] = NIH3T3 cell viability loss – ATP luminescence, mouse fibroblasts, counter-screen, dose response (AID 2010); format: functional, cell-based;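 also: cells exposed to compound for about 90 hours before reading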
[18] = Trypanosoma cruzi growth suppression in host cells – NIH3T3 host cells, beta-gal luminescence, confirmation (AID 2044); format: functional, cell-based;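 also: intracellular parasites grown in NIH/3T3 mouse fibroblasts as host cells; luminescent beta-galactosidase reporter signal from transgenic T. cruzi replicating inside host cells; inhibitors lower the luminescence signal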
[19] = biological target: T6, Cytochrome P450 1A2 (Homo sapiens, UniProt P05177);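 also: PubChem cytochrome P450 panel assay, CYP1A2 panel member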
T6 sequence (P05177 whole entry): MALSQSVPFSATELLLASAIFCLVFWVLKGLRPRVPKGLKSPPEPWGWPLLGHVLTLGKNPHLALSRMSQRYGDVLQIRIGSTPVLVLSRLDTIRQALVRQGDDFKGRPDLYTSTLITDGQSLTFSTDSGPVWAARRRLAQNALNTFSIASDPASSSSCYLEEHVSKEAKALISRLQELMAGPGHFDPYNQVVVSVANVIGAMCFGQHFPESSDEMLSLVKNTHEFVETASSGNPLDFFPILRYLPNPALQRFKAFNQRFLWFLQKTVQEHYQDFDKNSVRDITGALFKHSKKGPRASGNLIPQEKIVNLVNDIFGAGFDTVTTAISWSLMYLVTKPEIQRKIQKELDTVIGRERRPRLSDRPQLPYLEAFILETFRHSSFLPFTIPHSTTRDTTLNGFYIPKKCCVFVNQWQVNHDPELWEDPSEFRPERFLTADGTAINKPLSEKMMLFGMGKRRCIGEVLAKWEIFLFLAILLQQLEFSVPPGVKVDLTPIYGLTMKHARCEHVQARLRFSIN

Sequence of Voltage-dependent T-type calcium channel subunit alpha-1H (O95180 whole entry): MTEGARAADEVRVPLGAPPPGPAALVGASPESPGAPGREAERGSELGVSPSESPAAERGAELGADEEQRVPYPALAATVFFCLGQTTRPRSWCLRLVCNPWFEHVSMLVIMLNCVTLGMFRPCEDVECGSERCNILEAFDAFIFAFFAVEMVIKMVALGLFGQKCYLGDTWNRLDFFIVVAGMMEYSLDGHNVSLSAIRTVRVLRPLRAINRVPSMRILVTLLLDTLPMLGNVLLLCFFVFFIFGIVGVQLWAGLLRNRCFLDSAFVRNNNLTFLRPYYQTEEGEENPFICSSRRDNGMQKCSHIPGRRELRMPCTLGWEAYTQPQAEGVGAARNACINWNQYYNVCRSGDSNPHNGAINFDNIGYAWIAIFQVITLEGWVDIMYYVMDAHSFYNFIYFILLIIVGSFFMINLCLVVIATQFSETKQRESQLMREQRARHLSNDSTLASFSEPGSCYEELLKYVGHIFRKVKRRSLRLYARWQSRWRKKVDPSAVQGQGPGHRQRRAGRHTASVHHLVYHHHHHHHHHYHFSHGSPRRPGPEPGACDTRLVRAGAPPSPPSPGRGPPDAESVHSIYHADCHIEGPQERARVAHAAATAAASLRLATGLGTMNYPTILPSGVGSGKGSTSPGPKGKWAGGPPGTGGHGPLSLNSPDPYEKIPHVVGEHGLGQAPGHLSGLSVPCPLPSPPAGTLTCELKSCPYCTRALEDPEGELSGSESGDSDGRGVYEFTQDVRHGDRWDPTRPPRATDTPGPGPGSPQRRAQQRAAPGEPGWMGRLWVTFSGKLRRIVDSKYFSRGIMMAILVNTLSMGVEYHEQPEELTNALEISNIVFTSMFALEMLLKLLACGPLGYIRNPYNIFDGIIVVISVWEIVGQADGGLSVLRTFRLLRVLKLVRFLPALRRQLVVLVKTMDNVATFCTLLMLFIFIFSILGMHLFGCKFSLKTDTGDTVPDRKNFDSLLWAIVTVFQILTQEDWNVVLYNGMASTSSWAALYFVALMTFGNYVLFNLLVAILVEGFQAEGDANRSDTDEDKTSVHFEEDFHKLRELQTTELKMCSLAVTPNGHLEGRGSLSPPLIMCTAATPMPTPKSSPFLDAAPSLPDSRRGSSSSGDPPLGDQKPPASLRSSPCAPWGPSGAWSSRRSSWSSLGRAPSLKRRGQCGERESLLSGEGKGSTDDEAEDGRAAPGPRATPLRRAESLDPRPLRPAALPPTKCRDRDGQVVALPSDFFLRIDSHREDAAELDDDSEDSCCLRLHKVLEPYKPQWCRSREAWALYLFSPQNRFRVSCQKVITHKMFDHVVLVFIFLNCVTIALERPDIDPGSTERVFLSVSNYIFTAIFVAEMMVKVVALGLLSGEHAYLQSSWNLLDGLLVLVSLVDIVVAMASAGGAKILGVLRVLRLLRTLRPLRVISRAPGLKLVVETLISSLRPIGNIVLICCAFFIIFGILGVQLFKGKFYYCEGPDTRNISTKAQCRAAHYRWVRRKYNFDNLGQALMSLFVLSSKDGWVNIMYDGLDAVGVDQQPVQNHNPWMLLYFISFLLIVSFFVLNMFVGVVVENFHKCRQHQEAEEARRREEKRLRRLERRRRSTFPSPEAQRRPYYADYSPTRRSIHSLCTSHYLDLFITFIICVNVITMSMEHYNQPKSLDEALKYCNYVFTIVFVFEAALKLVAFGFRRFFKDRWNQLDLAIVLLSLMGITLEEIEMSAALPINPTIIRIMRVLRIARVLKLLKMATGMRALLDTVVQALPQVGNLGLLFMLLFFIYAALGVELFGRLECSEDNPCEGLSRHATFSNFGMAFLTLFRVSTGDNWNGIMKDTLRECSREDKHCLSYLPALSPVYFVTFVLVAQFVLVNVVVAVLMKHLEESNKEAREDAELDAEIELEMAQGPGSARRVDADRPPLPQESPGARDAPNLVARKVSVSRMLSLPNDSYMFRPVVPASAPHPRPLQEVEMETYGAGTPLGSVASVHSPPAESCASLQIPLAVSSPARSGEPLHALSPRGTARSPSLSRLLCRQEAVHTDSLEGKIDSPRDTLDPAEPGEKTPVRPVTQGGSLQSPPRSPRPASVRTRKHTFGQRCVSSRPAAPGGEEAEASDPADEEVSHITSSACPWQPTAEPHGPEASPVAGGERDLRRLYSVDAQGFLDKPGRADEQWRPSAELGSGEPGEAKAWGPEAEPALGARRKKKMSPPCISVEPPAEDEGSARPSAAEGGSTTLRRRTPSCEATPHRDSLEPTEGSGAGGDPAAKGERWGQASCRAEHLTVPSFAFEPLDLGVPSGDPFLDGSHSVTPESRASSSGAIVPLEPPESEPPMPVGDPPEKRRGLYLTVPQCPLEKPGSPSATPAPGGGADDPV

O=C(NCc1ccco1)c1ccc2c(=O)n(Cc3ccco3)c(SCC(=O)N3CCCC3)nc2c1
IC50 [1]: 6.12 µM (active)

COc1ccccc1N1CCN(C(=O)C(Sc2ccccc2)c2ccccc2)CC1 (stereo not given)
EC50 [2]: 4.93 µM (active)

O=C(CCC(=O)N1CCN(S(=O)(=O)c2ccc(Cl)cc2)CC1)Nc1cccc(Br)c1
IC50 [3]: 24.9 µM (not active)

Cc1ccccc1S(=O)(=O)N1CC(=O)N2[C@H](C1)[C@@H](c1ccc(C#Cc3ccccc3)cc1)[C@@H]2CO
AC50 [4]: 3.52 µM (active) | AC50 [5]: 15.8 µM (active)

COc1ccc(Br)cc1/C=C(\C(=O)O)c1ccc(S(=O)(=O)N2CCCC2)s1
IC50 [1]: 8.63 µM (active)

CN1CCN(Cc2nc3ccccc3c(=O)n2Cc2nc(-c3ccc4ccccc4c3)cs2)CC1
EC50 [6]: 4.02 µM (active) | CC50 [7]: 6.44 µM (active) | AC50 [8]: 4.28 µM (active) | EC50 [9]: 4.11 µM (active)

Cc1ccc(CCNC(=O)c2ccc3nc4ccccc4c(=O)n3c2)cc1
IC50 [1]: 14.2 µM (active)

COc1ccc(-c2nnc(SCC(=O)Nc3cc(F)ccc3C)o2)cc1
IC50 [10]: > 20 µM (inactive)

CCc1ccc(-c2nc(CN3CCC(C(=O)N4CCN(c5ccccn5)CC4)CC3)c(C)o2)cc1
EC50 [6]: 7.28 µM (active) | EC50 [9]: 7.51 µM (active)

Cc1ccc(-n2nnnc2SCc2nc3sc(C)c(C)c3c(=O)[nH]2)cc1
EC50 [11]: > 99 µM (inactive) | EC50 [12]: > 99 µM (inactive)

COC(=O)c1[nH]c2cc(OC)ccc2c1NC(=O)CN1CCN(c2cccc(C)c2)C(C)C1 (stereo not given)
CC50 [7]: 30.6 µM (active)

O=C(CSc1nc(N2CCCCC2)nc(N2CCCCC2)n1)N1CCN(c2ccccc2)CC1
EC50 [2]: 5.36 µM (active)

Cc1ccc(-c2cc(C(F)F)n3ncc(C(=O)Nc4c(C)nn(Cc5ccccc5Cl)c4C)c3n2)cc1
EC50 [6]: 8.23 µM (active) | EC50 [9]: 8.84 µM (active)

Cn1c(N)c(C(=O)COC(=O)CCCc2nc3ccccc3s2)c(=O)n(C)c1=O
IC50 [3]: > 50 µM (not active)

CCN(CC)S(=O)(=O)c1ccc(Nc2nc3ccccc3n3nnnc23)cc1
IC50 [13]: > 79 µM (inactive) | EC50 [6]: 35.3 µM (active) | EC50 [9]: 22.1 µM (active)

O=[N+]([O-])c1ccc(/C=C/c2ccc3cccc(O)c3n2)cc1
EC50 [11]: > 99 µM (inactive) | EC50 [12]: > 99 µM (inactive)

Cc1ccc(C(NC(=O)N2CCOCC2)=C(Cl)Cl)cc1F
EC50 [6]: 4.71 µM (active) | EC50 [9]: 6.69 µM (active)

C[C@H](CO)N1C[C@H](C)[C@H](CN(C)C(=O)[C@H](C)c2ccccc2)OCc2ccccc2-c2c(n(C)c3ccccc23)C1=O
AC50 [4]: 4.15 µM (active) | AC50 [5]: 34.4 µM (active)

CCC(=O)N1c2ccc(C)cc2C2=NN=C(S)NC21O (stereo not given)
IC50 [10]: > 20 µM (inactive)

CCOc1ccc(C2CC(c3cccc(OC)c3OC)n3nnnc3N2)cc1Cl (stereo not given)
EC50 [2]: 2.66 µM (active)

Cc1ccc(-c2csc(NC(=O)c3cccc(N4C(=O)CCC4=O)c3)n2)o1
EC50 [2]: 3.78 µM (active)

C/C(=N\NC(=O)CC(C)C)c1c(C(F)(F)F)nn(-c2nc3ccccc3s2)c1O
CC50 [7]: 37.4 µM (active)

CCn1c(/C=C/c2c(C)n(CC)c3ccccc23)nc2ccccc2c1=O
EC50 [11]: > 99 µM (inactive) | EC50 [12]: > 99 µM (inactive)

C[C@H](CO)N1C[C@H](C)[C@H](CN(C)S(=O)(=O)c2cccs2)Oc2ccc(NC(=O)Cc3ccccc3)cc2CC1=O
AC50 [14]: < 0.26 µM (active) | AC50 [15]: < 0.26 µM (active)

CCOc1ccc(-c2n[nH]cc2Oc2cccc(OC)c2)c(O)c1
IC50 [10]: > 20 µM (inactive)

Cc1cc(C)c(C#N)c(SCC(=O)c2cccs2)n1
EC50 [11]: 18 µM (active) | EC50 [12]: > 99 µM (inactive)

CN(C)C(=O)c1cccc(-c2cccc(-c3nc(C(=O)NCc4ccccc4)cc4c3[C@@H](CCO)N([S@+]([O-])C(C)(C)C)C4)c2)c1
AC50 [4]: 1.17 µM (active) | AC50 [5]: 17.5 µM (active)

COc1ccc(N2CCN(Cc3cc4c(cc3O)CCC4)CC2)cc1
CC50 [7]: > 40 µM (active)

Cc1cc(/C=C2\C(=O)NC(=O)N(c3cccc(Br)c3)C2=O)c(C)n1C
EC50 [11]: > 99 µM (inactive) | EC50 [16]: 26.2 µM (active) | EC50 [12]: > 99 µM (inactive)

Cc1cc(NS(=O)(=O)c2ccc(NC(=S)NC(=O)c3ccc(C(C)(C)C)cc3)cc2)no1
IC50 [3]: 26.1 µM (not active)

CC(=O)C(C[N+]1(C)CCCCC1)=NO
IC50 [1]: 3.4 µM (active)

O=C(/C=C/c1ccc(Br)cc1)c1ccco1
EC50 [6]: 10.9 µM (active) | EC50 [9]: 11.5 µM (active)

Nc1c(C(=O)C2CC2)sc2nc(-c3ccccc3)cc(C(F)(F)F)c12
EC50 [2]: 2.51 µM (active)

O=c1c2cc(NC(=S)NCCCN3CCC(Cc4ccccc4)CC3)ccc2nc2n1CCCCC2
EC50 [17]: > 60 µM (not active) | IC50 [10]: > 20 µM (inactive) | AC50 [8]: 9.58 µM (active) | EC50 [18]: 2.09 µM (active)

O=C(N/N=C/c1cccc(OC2CSC2)c1)c1ccccc1O
IC50 [1]: 6.78 µM (active) | AC50 [19]: 3.16 µM (inconclusive)

CC(C)COP(=O)(OCC(C)C)C(Nc1ccccc1)c1ccc2c(c1)OCO2 (stereo not given)
IC50 [13]: > 79 µM (inactive) | IC50 [3]: 11.4 µM (not active)
